Test results reported in paper PMC11054132, “Neuroprotective Effects of Chemical Constituents of Leaves of Euonymus hamiltonianus Wall” (Plants, 2024).
“Also recorded” adds a separate entry of the source. Like-named read-outs stand apart in the source and are kept apart here.

Columns and labels:
[1] = Storage stability of isolated compound by LC-MS; format: physicochemical; conditions: stored 27 days (compound 2) or a significant length of time (compound 1), dried powder and DMSO solution
Procedure: In this study, qualitative profile analysis was performed on the 30% EtOH crude extract of the leaves of E. hamiltonianus using HPLC. The isolated phytochemicals, 1–14, were used as standards and compared to the crude extract profile represented by a high-performance liquid chromatogram (Figure 3). […] With comparative UV area normalization, compound 2 was confirmed as a pure compound initially when isolated (Figure S3.8). […] For reconfirmation, LC-MS analyses of both the dried powdered form of the compound when isolated and the compound in DMSO solution were performed (Figure S3.9), both sets of results showing signs of degradation. Compound 2 was degraded into three separate peaks, and the original compound 2 indicated by m/z 759.2 was verified by LC-MS analysis, and the peaks of 2a and 2b were indicated by m/z 465.1 and 627, respectively. […] Due to the close resemblance of compound 2 to compound 1, it was investigated in the same manner after a significant length of time.

[2] = Cytotoxicity (MTT assay) in BV-2 microglial cells; format: cell-based; conditions: mouse
[3] = test system: Aβ42 production in APPsw-transfected HeLa cells; assay: Aβ42 production (ELISA kit) in APPsw-transfected HeLa cells; format: cell-based; conditions: for IC50: 8 h, APPsw-transfected HeLa cells, means ± SDs (n = 3)
Procedure: APPsw-transfected HeLa cells were cultured with the isolated compounds or DMSO in Dulbecco’s modified Eagle medium (DMEM, Welgene, Gyeongsan-si, Republic of Korea) for 8 h, and then the cell culture supernatants were collected for the following analyses. For the detection of Aβ secretion, kits for Aβ42 (KHB3442) and Aβ40 (KHB3482) were purchased from the Invitrogen Company and used according to the supplier’s instructions.
(§1) For the Aβ-Hela-APPsw model, Hela cells were stably transfected with an APP carrying the Swedish mutation (APPsw) using BioT (Bioland Scientific LLC, Paramount, CA, USA) according to the manufacturer’s instructions, which was provided by Prof. Tae-Wan Kim (Department of Pathology, Columbia University of Medical Center, New York, NY 10032, USA). APPsw-transfected HeLa cells were grown in DMEM supplemented with 10% fetal bovine serum (FBS; Thermo Fisher Scientific, Lafayette, CA, USA), 1% penicillin/streptomycin (Thermo Fisher Scientific, Lafayette, CA, USA), 260 μg/mL Zeocin, and 400 μg/mL G418. The cells were maintained at 37 °C under a humidified atmosphere of 5% CO2. The stock sample solution was dissolved in DMSO and kept at −20 °C and diluted to the final concentration in fresh medium before each experiment. For the cell viability assay, Hela cells were cultured in 96-well plates for 24 h and then various concentrations of comp 27 (0–10 μM) were treated for 12 h. The EZ-Cytox kit (DAEILLAB, Cheongwon, Republic of Korea) was applied to detect the cell viability, following the manufacturer’s instructions, and measurements were taken by a microplate reader (BIO-TEK® Dower-Wave; BioTek, Winooski, VT, USA) under absorbance at 450 nm. The results were presented as the percentage of MTT reduction, compared with the control group as 100%. For the LPS-induced microglia model, the BV-2 mouse microglia cell line was provided by Prof. Lee Sung Jung’s research team in the College of Medicine, Seoul National University, and was cultured in DMEM-F12 with 5% FBS and 1% penicillin/streptomycin at 37 °C under a humidified atmosphere containing 5% CO2. And the cell viability assay was performed using the Aβ-Hela-APPsw model.

[4] = test system: NO production in LPS-activated BV-2 microglial cells; assay: NO production (Griess reaction) in LPS-stimulated BV-2 microglial cells; format: cell-based, mouse; conditions: for IC50: Mus musculus, BV-2, BV-2 microglial cells, pretreated 1 h, 100 ng/mL LPS (footnote 24 h; text 12 h), means ± SDs (n = 3)
Procedure: The anti-inflammatory effects of the fourteen compounds (1–14) isolated from E. hamiltonianus were evaluated in activated BV-2 microglial cells by the production of NO and proinflammatory cytokines. […] […] The compounds were continuously assessed to determine whether they suppressed the expression of iNOS and COX-2 in LPS-stimulated BV-2 microglial cells. The cells were stimulated with LPS in the presence of these compounds at various concentrations, and the expression levels of iNOS and COX-2 were determined by Western blotting. […] Thus, compound 3 may be considered a potential anti-inflammatory agent.
as §1, with “For the cell viability assay, Hela cells were cultured in 96-well plates for 24 h and then various concentrations of comp 27 (0–10 μM) were treated for 12 h.” left out
[…] The media were collected and centrifuged at 13,000 rpm for the removal of dead cells. The supernatants were collected and mixed with an equal volume (50 μL) of Griess reagents (1% sulfanilamide and N-(1-naphthyl) ethylenediamine dihydrochloride in 2.5% H3PO4) for 5 min at room temperature, and the Nitric Oxide concentration was measured at 540 nm using a microplate reader and compared with the sodium nitrite standard curve.

iNOS = assay: Western blot of LPS-induced iNOS expression in BV-2 microglial cells; format: cell-based, mouse; conditions: LPS-stimulated BV-2 microglial cells, various concentrations (1.0, 2.0, 4.0 µM)
Procedure: The anti-inflammatory effects of the fourteen compounds (1–14) isolated from E. hamiltonianus were evaluated in activated BV-2 microglial cells by the production of NO and proinflammatory cytokines. BV-2 microglial cells were stimulated with 0.1 µg/mL LPS for 12 h in the presence of the compounds at various concentrations, and the levels of NO in the culture supernatants were measured using Griess reactions. […] The compounds were continuously assessed to determine whether they suppressed the expression of iNOS and COX-2 in LPS-stimulated BV-2 microglial cells. The cells were stimulated with LPS in the presence of these compounds at various concentrations, and the expression levels of iNOS and COX-2 were determined by Western blotting. […] Thus, compound 3 may be considered a potential anti-inflammatory agent.
The total protein samples (10 μg) were loaded in sodium dodecyl sulfate polyacrylamide gel electrophoresis (SDS–PAGE) gels with 10% acrylamide/bis and transferred to polyvinylidene difluoride membranes (Millipore, Burlington, MA, USA). Then, the membranes were blocked with 5% silky milk dissolved in TBST (Tris Buffered saline Tween) for 1 h under room temperature and incubated overnight at 4 °C with specific primary antibodies (1:1000). After being washed with TBST, the membranes were incubated with secondary HRP-conjugated IgG (1:2000) at room temperature for 1 h and visualized using enhanced chemiluminescence (ECL) reagents (Thermo Fisher Scientific, Lafayette, CA, USA). Densitometry analysis of the bands was performed with the fusion solo system (Vilber, Paris, France). The band densities were determined as the intensities of protein by TotalLab TL120 software v2009 (TotalLab, Newcastle, UK).

[5] = BV-2 microglial cells, MTT assay, read-out: IC50 Value (µM) Cytotoxicity

| SMILES | IC50 at 12 h [2, 5] | IC50 ([3]; Homo sapiens, HeLa) | IC50 [4] | other results |
| --- | --- | --- | --- | --- |
| O=c1c(O[C@@H]2O[C@H](CO)[C@@H](O)[C@H](O)[C@H]2O[C@@H]2OC[C@@H](O)[C@H](O)[C@H]2O)c(-c2ccc(O)c(O)c2)oc2cc(O[C@@H]3O[C@H](CO)[C@@H](O)[C@H](O)[C@H]3O)cc(O)c12 [Compound 2, quercetin-3-O-(2″-O-(β-D-xylopyranosyl)-β-D-glucopyranoside)-7-O-β-D-glucopyranoside] | > 100 µM | > 100 µM | > 100 µM | Degradation on storage (in words) [1]: showed signs of degradation |
| OC[C@H]1O[C@@H](OC[C@H]2O[C@@H](OCc3ccccc3)[C@H](O)[C@@H](O)[C@@H]2O)[C@H](O)[C@@H](O)[C@@H]1O [Compound 14, benzyl gentiobioside] | > 100 µM | 53.1 to 65.4 µM | 17.4 ± 2.77 µM | LPS-induced iNOS protein expression (in words) (iNOS): suppressed; also recorded: effectively downregulated; Inhibitory effect on NO production (in words) ([4]; LPS-stimulated BV-2 microglial cells): effectively downregulated; also recorded: good inhibitory effects |
| COC(=O)/C=C/c1ccc(O)c(O[C@@H]2O[C@H](CO)[C@@H](O)[C@H](O)[C@H]2O)c1 [Compound 13, methyl trans-3-O-(β-D-glucopyranosyl) caffeate] | > 100 µM | 53.1 to 65.4 µM | > 100 µM | IC50 [3]: 65.4 ± 6.71 µM; Inhibitory effect on Aβ production (in words) ([3]; Hela-swAPP cells): reduced Aβ levels |
| O=C(O)/C=C/c1ccc(O)c(O[C@@H]2O[C@H](CO)[C@@H](O)[C@H](O)[C@H]2O)c1 [Compound 12, caffeic acid trans-3-O-β-D-glucopyranoside] | > 100 µM | > 100 µM | > 100 µM | – |
| COc1cc([C@H]2OC[C@H]3[C@@H]2CO[C@@H]3c2cc(OC)c(O[C@@H]3O[C@H](CO)[C@@H](O)[C@H](O)[C@H]3O)c(OC)c2)cc(OC)c1O[C@@H]1O[C@H](CO)[C@@H](O)[C@H](O)[C@H]1O [Compound 9, liriodendrin] | – | – | – | IC50 at 12 h [2]: > 100 µM |
| C[C@@H]1C[C@H]2[C@@H]3CCC4=CC(=O)C=C[C@]4(C)[C@@]3(F)[C@@H](O)C[C@]2(C)[C@@]1(O)C(=O)CO [Dexamethasone, reference compound] | > 100 µM | – | 1.24 ± 0.104 µM | – |
| O=c1c(O[C@@H]2O[C@H](CO)[C@@H](O)[C@H](O)[C@H]2O)c(-c2ccc(O)c(O[C@@H]3O[C@H](CO)[C@@H](O)[C@H](O)[C@H]3O)c2)oc2cc(O)cc(O)c12 [Compound 8, quercetin-3,3′-di-O-β-D-glucopyranoside] | > 100 µM | – | > 100 µM | – |
| O=c1c(O[C@@H]2O[C@H](CO)[C@@H](O)[C@H](O)[C@H]2O)c(-c2ccc(O)c(O)c2)oc2cc(O)cc(O)c12 [Compound 7, isoquercetin] | > 100 µM | – | > 100 µM | – |
| O=c1occc2c(O)cc(O)cc12 [Compound 11, 5,7-dihydroxyisocoumarin] | > 100 µM | – | > 100 µM | – |
| O=c1c(O[C@@H]2O[C@H](CO)[C@@H](O)[C@H](O)[C@H]2O[C@@H]2OC[C@@H](O)[C@H](O)[C@H]2O)c(-c2ccc(O)c(O)c2)oc2cc(O)cc(O)c12 [Compound 6, quercetin-3-O-sambubioside] | > 100 µM | > 100 µM | > 100 µM | – |
| COc1cc2c(OC)c3c(c(-c4ccc5c(c4)OCO5)c2cc1OC)C(=O)OC3 [Justicidine A, reference compound] | – | – | – | IC50 [3]: 1 ± 0.043 µM |
| COc1cc(-c2oc3cc(O[C@@H]4O[C@H](CO)[C@@H](O)[C@H](O)[C@H]4O)cc(O)c3c(=O)c2O[C@@H]2O[C@H](CO)[C@@H](O)[C@H](O)[C@H]2O)ccc1O [Compound 5, isorhamnetin-3,7-di-O-β-D-glucopyranoside] | > 100 µM | – | > 100 µM | – |
| CCCCOC(=O)C(CC(=O)O)OC(=O)C=Cc1ccc(O)cc1 (stereo not shown) [Compound 10, p-coumaroylmalic acid 1-butyl ester] | > 100 µM | – | > 100 µM | – |
| COc1cc(-c2oc3cc(O[C@@H]4O[C@H](CO)[C@@H](O)[C@H](O)[C@H]4O)cc(O)c3c(=O)c2O[C@@H]2O[C@H](CO)[C@@H](O)[C@H](O)[C@H]2O[C@@H]2OC[C@@H](O)[C@H](O)[C@H]2O)ccc1O [Compound 1, isorhamnet-in-3-O-(2″-O-(β-D-xylopyranosyl)-β-D-glucopyranoside)-7-O-β-D-glucopyranoside] | > 100 µM | – | > 100 µM | Degradation on storage (in words) [1]: did not show any sign of degradation |
